What follows are compounds tested against Mitogen-activated protein kinase 9 (Homo sapiens, UniProt P45984) (assay: Inhibition of His6-tagged JNK2 (unknown origin) assessed as reduction in c-Jun phosphorylation using GST-c-Jun (1 to 79 residues) and [gamma32P]ATP incubated for 1 hr by scintillation counting assay).
Sequence of Mitogen-activated protein kinase 9 (P45984 whole entry, the tested form may be a part): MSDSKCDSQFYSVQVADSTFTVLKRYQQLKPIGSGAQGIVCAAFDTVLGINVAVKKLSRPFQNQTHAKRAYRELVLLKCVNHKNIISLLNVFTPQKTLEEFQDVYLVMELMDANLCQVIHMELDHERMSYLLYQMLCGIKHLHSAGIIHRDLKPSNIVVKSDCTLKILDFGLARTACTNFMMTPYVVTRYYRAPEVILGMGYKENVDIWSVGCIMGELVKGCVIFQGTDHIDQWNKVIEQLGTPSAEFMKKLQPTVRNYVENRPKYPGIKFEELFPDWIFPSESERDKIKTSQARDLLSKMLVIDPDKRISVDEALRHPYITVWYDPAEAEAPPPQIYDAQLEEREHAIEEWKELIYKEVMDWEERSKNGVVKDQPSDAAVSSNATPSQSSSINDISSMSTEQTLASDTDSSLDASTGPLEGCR
In the case of CC(C)c1cccc(-c2n[nH]c3ccc(-c4nc[nH]n4)cc23)c1, the IC50 is reported as 1 to 10 µM.
For CN(C)CCOc1ccc(-c2n[nH]c3ccc(C(N)=O)cc23)cc1, the IC50 was 1 to 10 µM.
In the case of Nc1cccc(-c2n[nH]c3ccc(-c4nnn[nH]4)cc23)c1, the IC50 is reported as 0.5 to 10 µM.
In the case of CC(C)COc1ccc(-c2n[nH]c3ccc(-c4nnn[nH]4)cc23)cc1, the IC50 is reported as 1 to 10 µM.
Compound NC(=O)c1ccc2[nH]nc(-c3cc4ccccc4o3)c2c1 has an IC50 of 1 to 10 µM.
Clc1ccc(-c2n[nH]c3ccc(-c4nnn[nH]4)cc23)cc1 gave an IC50 of 0.5 to 10 µM.
NC(=O)c1ccc2[nH]nc(-c3cc4ccccc4s3)c2c1 gave an IC50 of 1 to 10 µM.
c1ccc2cc(-c3n[nH]c4ccc(-c5ncn[nH]5)cc34)ccc2c1 gave an IC50 of 1 to 10 µM.
CC(C)c1ccc(-c2n[nH]c3ccc(-c4nnn[nH]4)cc23)cc1 showed an IC50 of 1 to 10 µM.
For CN(C)CCOc1ccc(-c2n[nH]c3ccc(-c4ncn[nH]4)cc23)cc1, the IC50 was 1 to 10 µM.
c1ccc2oc(-c3n[nH]c4ccc(-c5nnn[nH]5)cc34)cc2c1 gave an IC50 of 0.5 to 10 µM.
C(=C\c1n[nH]c2ccc(-c3nc[nH]n3)cc12)/c1ccccc1 was tested, and the IC50 was 1 to 10 µM.
In the case of NC(=O)c1ccc2[nH]nc(-c3ccc4ccccc4c3)c2c1, the IC50 is reported as 1 to 10 µM.
O=C(O)CCc1ccc2[nH]nc(-c3ccc(F)cc3)c2c1 showed an IC50 of no more than 10 µM.
Work on NC(=O)c1ccc2[nH]nc(-c3ccc(O)cc3)c2c1 yielded an IC50 of 1 to 10 µM.
For c1nc(-c2ccc3[nH]nc(-c4ccsc4)c3c2)n[nH]1, the IC50 was 1 to 10 µM.
With Oc1ccccc1-c1n[nH]c2ccc(-c3nnn[nH]3)cc12 the IC50 was 1 to 10 µM.
c1ccc2cc(-c3n[nH]c4ccc(-c5nnn[nH]5)cc34)ccc2c1 showed an IC50 of 0.5 to 10 µM.
Compound COc1ccccc1-c1n[nH]c2ccc(-c3nnn[nH]3)cc12 has an IC50 of 1 to 10 µM.
With NC(=O)c1ccc2[nH]nc(-c3ccoc3)c2c1 the IC50 was 1 to 10 µM.
COc1ccc(-c2n[nH]c3ccc(-c4nnn[nH]4)cc23)cc1 was tested, and the IC50 was 0.5 to 10 µM.
Compound c1csc(-c2n[nH]c3ccc(-c4nnn[nH]4)cc23)c1 has an IC50 of 0.5 to 10 µM.
CN(C)c1ccc(-c2n[nH]c3ccc(C(N)=O)cc23)cc1 was tested, and the IC50 was 1 to 10 µM.
Compound C(#Cc1n[nH]c2ccc(-c3nnn[nH]3)cc12)c1ccccc1 has an IC50 of 1 to 10 µM.
Work on Oc1cccc(-c2n[nH]c3ccc(-c4nnn[nH]4)cc23)c1 yielded an IC50 of 0.5 to 10 µM.
Work on COc1cccc(-c2n[nH]c3ccc(-c4nnn[nH]4)cc23)c1 yielded an IC50 of 0.5 to 10 µM.
c1cc(-c2n[nH]c3ccc(-c4nnn[nH]4)cc23)ccn1 showed an IC50 of 0.5 to 10 µM.
Work on CC(C)c1cccc(-c2n[nH]c3ccc(C(N)=O)cc23)c1 yielded an IC50 of no more than 10 µM.
Fc1ccc(-c2n[nH]c3ccc(CCc4ccccc4)cc23)cc1 gave an IC50 of no more than 10 µM.
CN(C)c1ccc(-c2n[nH]c3ccc(-c4ncn[nH]4)cc23)cc1 gave an IC50 of 1 to 10 µM.
OC(Cc1ccccc1)c1ccc2[nH]nc(-c3ccc(F)cc3)c2c1 (configuration not stated) showed an IC50 of 1 to 10 µM.
For O=C(Cc1ccccc1)c1ccc2[nH]nc(-c3ccc(F)cc3)c2c1, the IC50 was no more than 10 µM.
With c1ccc(CCc2n[nH]c3ccc(-c4nnn[nH]4)cc23)cc1 the IC50 was 1 to 10 µM.
Compound Oc1ccc(-c2n[nH]c3ccc(-c4ncn[nH]4)cc23)cc1 has an IC50 of 1 to 10 µM.
c1coc(-c2n[nH]c3ccc(-c4nnn[nH]4)cc23)c1 gave an IC50 of 0.5 to 10 µM.
In the case of O=C(O)c1ccc2[nH]nc(-c3cc4ccccc4s3)c2c1, the IC50 is reported as 1 to 10 µM.
O=C(O)c1ccc(CCc2ccc3[nH]nc(-c4ccc(F)cc4)c3c2)cc1 gave an IC50 of no more than 10 µM.
In the case of NC(=O)c1ccc2[nH]nc(C#Cc3ccccc3)c2c1, the IC50 is reported as 1 to 10 µM.
Work on COC(=O)c1ccc2[nH]nc(-c3cc4ccccc4s3)c2c1 yielded an IC50 of no more than 10 µM.
Compound Fc1ccc(-c2n[nH]c3ccc(CCc4ccccn4)cc23)cc1 has an IC50 of no more than 10 µM.
Compound COc1ccc(-c2n[nH]c3ccc(-c4ncn[nH]4)cc23)cc1 has an IC50 of 1 to 10 µM.
c1n[nH]c(-c2ccc3[nH]nc(-c4ccoc4)c3c2)n1 gave an IC50 of 1 to 10 µM.
In the case of C(=C\c1n[nH]c2ccc(-c3nnn[nH]3)cc12)/c1ccccc1, the IC50 is reported as 0.5 to 10 µM.
In the case of c1cc2[nH]nc(-c3ccc4c(c3)OCO4)c2cc1-c1nnn[nH]1, the IC50 is reported as 0.5 to 10 µM.
c1cncc(-c2n[nH]c3ccc(-c4nnn[nH]4)cc23)c1 was tested, and the IC50 was no more than 10 µM.
c1cc(-c2n[nH]c3ccc(-c4nnn[nH]4)cc23)cs1 gave an IC50 of 0.5 to 10 µM.
COc1ccc(-c2n[nH]c3ccc(C(N)=O)cc23)cc1 gave an IC50 of 1 to 10 µM.
